Eleven compounds from US12559506B2, “Indazole based compounds and associated methods of use” (Arvinas Operations, Inc., priority 2021, dated 2026) can be followed below.

Like-named read-outs stand apart in the source and are kept apart here.

In assay [1] the target is T1, wildtype LRRK2 (Homo sapiens, UniProt Q5S007).
T1 construct: expressed in transfected cells; host or cells: HEK293 (ATCC CRL-1573), transient transfection, mammalian expression vector with ubiquitin promoter
Nature of the assay: LRRK2 degradation assay, HiBit-tagged wildtype LRRK2 expressed from plasmid in HEK293 cells (Nano-Glo Dual-Luciferase). The format is cell-based. The conditions noted are these: 24 hours; for Dmax: read-out: **WT Dmax (%); for DC50: read-out: *WT DC50. The text has this:
(§1) Exemplary Assay for Testing LRRK2 Degradation Driven by Exemplary Hetero-Bifunctional Compounds Designed to Target LRRK2
(§2) The assay measures the degradation of wildtype and G2019S LRRK2 tagged with a HiBit tag on the C-terminus of the protein that was expressed from a mammalian expression vector, driven by the ubiquitin promoter in HEK293 cells. Each compound dose-response was repeated on two separate days, on three separate plates each day.
(§3) Plasmid Preparation. Transfection mixes were assembled as follows and incubated for 30 minutes at room temperature. In a 15 mL tube, 5.25 mL Opti-MEM (no additions) was mixed with 17 μL Firefly Luciferase plasmid at 1 μg/μL and 158 μL WT plasmid DNA at 1 μg/μL (175 μg total DNA) were mixed by flicking. In a new 15 mL tube, 5.25 mL OptiMEM was mixed with 17 μL Firefly Luciferase plasmid at 1 μg/μL and 158 μL G2019S plasmid DNA at 1 μg/μL (175 μg total DNA) were mixed by flicking. X-tremeGene HP was mixed thoroughly using a vortex. Next, 175 μL was added to each tube and flicked to mix. Both tubes were left to incubate for 30 minutes at room temperature.
(§4) While the transfection mixes were incubating, HEK293 cells (acquired from ATCC; ATCC CRL-1573) were harvested with trypsin. Once cells are detached, the cells were resuspended in 12 mL OptiMEM+5% FBS and transferred to a 50 mL tube. The cells were mixed well and counted. Using OptiMEM+5% FBS, the cells were diluted in two 250 mL conical tubes at 0.71×10^6 cells/mL in 70 mL. One tube was labeled “WT” and the other “G2019S”. The WT and G2019S transfection mixes were added dropwise to the corresponding 250 mL tubes. The tubes were mixed first by pipetting then by swirling. The tubes were incubated at room temperature for at least 5 minutes.
(§5) Each tube was swirled before dispensing and after every three plates. Seventy microliters of cells were dispensed with WT or G2019S DNA to seven plates each. Three plates of each were tested with compound plate one (preparation described below) and three plates of each were tested with compound plate two (preparation described below). The first plate from each set served as a “prime” plate and was not used to test compounds. Each plate was incubated in the hood for 10 minutes before placing in the 37° C. incubator for 24 hours.
(§6) Preparation of Compound and Assay Plates. Two compound plates were made using 96 well polypropylene plates. Compounds were made up at 10 mM and were diluted to 1 mM in 30 μL. Each dose response curve included a well of DMSO, as a negative control and for normalization, and a well of 0.5 μM of Compound 4 as a positive control. In addition to seven test compounds, each plate also included a dose response of Compound 4. The compound plates were spun down along at 1200 rpm for 2 minutes.
(§7) The two compound plates were then mixed and 2 μL was diluted in intermediate plates having 248 μL of Opti-Mem in each well. Next, 10 μL diluted compounds from the intermediate plates were added to each test plate (three WT and three G2019S plates per compound plate for a total of 12 assay plates). The plates were incubated for 24 hours at 37° C.
(§8) All assay plates and all Nano-Glo Dual-Luciferase Reporter Assay System components (except for the DLR substrate) were equilibrated to room temperature. Next, the luciferase buffer was mixed with the lyophilized amber bottle until fully dissolved, and 75 μL of the luciferase mixture was added to each well of each assay plate. The assay plates were incubated for 10 minutes at room temperature with shaking for at least 5 minutes, and then read on a plate reader.
(§9) Developing Plates and Analyzing Data. One milliliter of DLR substrate and 1 mL LgBiT Protein were added to the Stop and Glo buffer, and 75 μL of the mixture was added to each well of each plate. Optically clear seals were added to each plate and each plate was incubated for 20 minutes with shaking for at least 10 minutes, and then read on a plate reader. […]
A general note: With HiBiT, luminescence reflects the tagged protein that the partner subunit can reach.

Assay [2] has as its target T2, G2019S LRRK2 (Homo sapiens, UniProt Q5S007, G2019S).
T2 construct: expressed in transfected cells; host or cells: HEK293 (ATCC CRL-1573), transient transfection, mammalian expression vector with ubiquitin promoter
Nature of the assay: LRRK2 degradation assay, HiBit-tagged G2019S LRRK2 expressed from plasmid in HEK293 cells (Nano-Glo Dual-Luciferase). It counts as cell-based. The conditions noted are these: 24 hours.
Text: as §1, §2, §3, §4, §5, §6, §7, §8, §9

[3] abbreviates: HiBit-tagged wildtype LRRK2, HEK293 cells.
[4] abbreviates: HiBit-tagged G2019S LRRK2, HEK293 cells.
[5] abbreviates: HiBit-tagged wildtype LRRK2 in HEK293 cells.
Setting [6] is: HiBit-tagged G2019S LRRK2 in HEK293 cells.

For orientation: Dmax means the greatest extent of degradation seen. The DC50 is the concentration giving 50% degradation.

T2 sequence (Q5S007 whole entry G2019S): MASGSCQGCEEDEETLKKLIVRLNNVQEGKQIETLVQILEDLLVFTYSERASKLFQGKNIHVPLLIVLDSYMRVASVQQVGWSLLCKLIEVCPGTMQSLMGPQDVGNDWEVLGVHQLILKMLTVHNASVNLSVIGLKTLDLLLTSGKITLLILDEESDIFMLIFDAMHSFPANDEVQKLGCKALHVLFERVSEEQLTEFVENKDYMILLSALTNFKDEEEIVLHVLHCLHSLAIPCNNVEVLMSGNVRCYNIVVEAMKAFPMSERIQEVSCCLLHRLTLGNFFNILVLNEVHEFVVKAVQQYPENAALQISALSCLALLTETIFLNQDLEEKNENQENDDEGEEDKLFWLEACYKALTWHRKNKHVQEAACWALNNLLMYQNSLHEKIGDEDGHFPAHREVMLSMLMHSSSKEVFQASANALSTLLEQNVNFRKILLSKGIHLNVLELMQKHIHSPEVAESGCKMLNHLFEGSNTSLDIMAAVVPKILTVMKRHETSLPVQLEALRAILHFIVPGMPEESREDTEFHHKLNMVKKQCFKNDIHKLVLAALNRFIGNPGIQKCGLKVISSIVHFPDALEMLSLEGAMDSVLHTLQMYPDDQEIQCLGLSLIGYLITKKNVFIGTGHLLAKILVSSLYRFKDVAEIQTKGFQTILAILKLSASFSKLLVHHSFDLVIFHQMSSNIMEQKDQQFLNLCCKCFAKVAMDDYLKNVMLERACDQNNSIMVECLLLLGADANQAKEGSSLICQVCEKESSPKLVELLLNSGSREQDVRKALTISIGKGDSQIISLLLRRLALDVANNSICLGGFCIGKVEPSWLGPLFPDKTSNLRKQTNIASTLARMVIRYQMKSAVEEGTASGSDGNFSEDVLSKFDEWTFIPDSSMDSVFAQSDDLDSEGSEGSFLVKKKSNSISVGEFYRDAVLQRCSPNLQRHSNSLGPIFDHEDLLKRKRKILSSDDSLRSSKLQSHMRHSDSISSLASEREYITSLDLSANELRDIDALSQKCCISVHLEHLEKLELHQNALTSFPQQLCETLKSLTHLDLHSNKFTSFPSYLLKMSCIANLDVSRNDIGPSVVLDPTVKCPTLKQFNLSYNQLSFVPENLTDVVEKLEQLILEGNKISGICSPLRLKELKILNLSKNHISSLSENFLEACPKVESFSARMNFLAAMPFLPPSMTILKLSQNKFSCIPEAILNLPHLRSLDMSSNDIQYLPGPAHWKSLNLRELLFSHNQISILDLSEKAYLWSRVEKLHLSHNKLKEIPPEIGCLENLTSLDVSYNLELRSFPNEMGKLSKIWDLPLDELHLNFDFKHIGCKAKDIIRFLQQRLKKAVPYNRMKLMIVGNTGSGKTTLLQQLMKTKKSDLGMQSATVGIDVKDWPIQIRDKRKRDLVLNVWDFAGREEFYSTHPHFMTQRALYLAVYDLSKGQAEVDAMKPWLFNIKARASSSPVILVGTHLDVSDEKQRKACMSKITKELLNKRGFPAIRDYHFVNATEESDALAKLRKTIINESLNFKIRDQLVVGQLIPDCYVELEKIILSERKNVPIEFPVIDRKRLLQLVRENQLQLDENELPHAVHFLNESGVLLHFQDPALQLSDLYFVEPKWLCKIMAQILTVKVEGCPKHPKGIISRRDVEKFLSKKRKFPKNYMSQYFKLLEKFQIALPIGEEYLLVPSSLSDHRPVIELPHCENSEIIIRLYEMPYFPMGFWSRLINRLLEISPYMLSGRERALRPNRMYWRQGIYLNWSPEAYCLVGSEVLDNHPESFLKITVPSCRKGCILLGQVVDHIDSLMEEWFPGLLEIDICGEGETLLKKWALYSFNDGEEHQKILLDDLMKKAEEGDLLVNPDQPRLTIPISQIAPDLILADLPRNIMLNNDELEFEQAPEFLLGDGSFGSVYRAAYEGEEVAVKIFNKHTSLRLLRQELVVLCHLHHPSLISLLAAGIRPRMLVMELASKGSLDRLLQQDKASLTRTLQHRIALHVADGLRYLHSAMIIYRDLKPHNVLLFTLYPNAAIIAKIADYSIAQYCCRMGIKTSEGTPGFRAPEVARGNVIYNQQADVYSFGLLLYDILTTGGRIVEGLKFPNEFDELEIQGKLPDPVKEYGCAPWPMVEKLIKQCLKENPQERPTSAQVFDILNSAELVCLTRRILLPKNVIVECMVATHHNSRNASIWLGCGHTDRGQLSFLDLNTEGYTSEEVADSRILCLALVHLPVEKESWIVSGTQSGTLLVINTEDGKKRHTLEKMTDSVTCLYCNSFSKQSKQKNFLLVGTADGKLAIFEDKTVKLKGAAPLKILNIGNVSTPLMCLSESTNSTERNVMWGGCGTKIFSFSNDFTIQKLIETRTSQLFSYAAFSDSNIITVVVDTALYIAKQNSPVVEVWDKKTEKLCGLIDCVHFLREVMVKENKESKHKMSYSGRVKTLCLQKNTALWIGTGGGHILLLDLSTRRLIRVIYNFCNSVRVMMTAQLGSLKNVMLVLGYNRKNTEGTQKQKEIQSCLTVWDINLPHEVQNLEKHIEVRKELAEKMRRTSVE
T1 sequence (Q5S007 whole entry): as the sequence (Q5S007 whole entry G2019S) above, with S2019G counted along it

Regarding `CC1(Oc2ccc3[nH]nc(-c4cc(N5CC[C@@H](CN6CCN(CC7CCN(c8ccc9c(c8)C(=O)N(C8CCC(=O)NC8=O)C9=O)CC7)CC6)C5)ncn4)c3c2)CC1` (stereo partly drawn) [Compound 167, 2-(2,6-dioxo-3-piperidyl)-5-[4-[[4-[[(3S)-1-[6-[5-(1-methylcyclopropoxy)-1H-indazol-3-yl]pyrimidin-4-yl]pyrrolidin-3-yl]methyl]piperazin-1-yl]methyl]-1-piperidyl]isoindoline-1,3-dione], in assay [1] (setting [3]), the Dmax fell in the range of 50 to 70% and the DC50 was below 10 nM. In assay [2] (setting [4]), this compound showed a DC50 below 10 nM and a Dmax of 50 to 70%.

On to `C[C@H]1CN(c2cc(-c3n[nH]c4ccc(OC5(C)CC5)cc34)ncn2)CCN1CC1CCN(CCCOc2cccc3c2C(=O)N(C2CCC(=O)NC2=O)C3=O)CC1` (stereo partly drawn) [Compound 139, 2-(2,6-dioxo-3-piperidyl)-4-[3-[4-[[(2S)-2-methyl-4-[6-[5-(1-methylcyclopropoxy)-2H-indazol-3-yl]pyrimidin-4-yl]piperazin-1-yl]methyl]-1-piperidyl]propoxy]isoindoline-1,3-dione], for which, in assay [1] (setting [5]), the Dmax was below 50% and the DC50 is 10 to 50 nM. In assay [2] (setting [6]), this compound displayed a DC50 of 10 to 50 nM and a Dmax below 50%.

For `CC1(Oc2ccc3[nH]nc(-c4cc(N5CCN(CC67CC(CN8CCN(c9ccc%10c(c9)C(=O)N(C9CCC(=O)NC9=O)C%10=O)CC8)(C6)C7)CC5)ncn4)c3c2)CC1` (centres unmarked) [Compound 124, 2-(2,6-dioxo-3-piperidyl)-5-[4-[[3-[[4-[6-[5-(1-methylcyclopropoxy)-2H-indazol-3-yl]pyrimidin-4-yl]piperazin-1-yl]methyl]-1-bicyclo[1.1.1]pentanyl]methyl]piperazin-1-yl]isoindoline-1,3-dione], in assay [1] (setting [5]), the Dmax is below 50% and the DC50 was below 10 nM. In assay [2] (setting [6]), this compound registered a DC50 of 10 to 50 nM and a Dmax below 50%.

As for `CC1(Oc2ccc3n[nH]c(-c4cc(N5CCN(CC6(F)CCN(C(=O)C7CCN(c8ccc9c(c8)C(=O)N(C8CCC(=O)NC8=O)C9=O)CC7)CC6)CC5)ncn4)c3c2)CC1` (centres unmarked) [Compound 96, 2-(2,6-dioxo-3-piperidyl)-5-[4-[4-fluoro-4-[[4-[6-[5-(1-methylcyclopropoxy)-1H-indazol-3-yl]pyrimidin-4-yl]piperazin-1-yl]methyl]piperidine-1-carbonyl]-1-piperidyl]isoindoline-1,3-dione], the Dmax in assay [1] (setting [5]) and in assay [2] (setting [6]) was 50 to 70% each time. The DC50 in assay [1] (setting [5]) and in assay [2] (setting [6]) was below 10 nM in each case.

In the case of `C[C@H]1CN(c2cc(-c3n[nH]c4ccc(OC5(C)CC5)cc34)ncn2)CCN1CCC1CCN(CC2CCN(c3cccc4c3C(=O)N(C3CCC(=O)NC3=O)C4=O)CC2)CC1` (stereo partly drawn) [Compound 138, 2-(2,6-dioxo-3-piperidyl)-4-[4-[[4-[2-[(2S)-2-methyl-4-[6-[5-(1-methylcyclopropoxy)-2H-indazol-3-yl]pyrimidin-4-yl]piperazin-1-yl]ethyl]-1-piperidyl]methyl]-1-piperidyl]isoindoline-1,3-dione], the Dmax in assay [1] (setting [5]) and in assay [2] (setting [6]) was at least 70% throughout. Further, the DC50 was 10 to 50 nM in assay [1] (setting [5]) and below 10 nM in assay [2] (setting [6]).

On to `CC1(Oc2ccc3[nH]nc(-c4cc(N5CCC(CN=S6(=O)CCN(CC7CCN(c8ccc9c(c8)C(=O)N(C8CCC(=O)NC8=O)C9=O)CC7)CC6)CC5)ncn4)c3c2)CC1` (centres unmarked) [Compound 63, 2-(2,6-dioxo-3-piperidyl)-5-[4-[[1-[[1-[6-[5-(1-methylcyclopropoxy)-1H-indazol-3-yl]pyrimidin-4-yl]-4-piperidyl]methylimino]-1-oxo-1,4-thiazinan-4-yl]methyl]-1-piperidyl]isoindoline-1,3-dione], for which, in assay [1] (setting [5]), the Dmax is at least 70% and the DC50 is below 10 nM. Further, in assay [2] (setting [6]), the DC50 is below 10 nM and the greatest degradation seen (Dmax) is at least 70%.

Turning to `CC1(Oc2ccc3[nH]nc(-c4cc(N5CCN(CC6CCN(C(=O)C7CCN(c8ccc9c(c8)C(=O)N(C8CCC(=O)NC8=O)C9=O)CC7)CC6)CC5)ncn4)c3c2)CC1` (centres unmarked) [Compound 90, 2-(2,6-dioxopiperidin-3-yl)-5-(4-{4-[(4-{6-[5-(1-methylcyclopropoxy)-1H-indazol-3-yl]pyrimidin-4-yl}piperazin-1-yl)methyl]piperidine-1-carbonyl}piperidin-1-yl)-2,3-dihydro-1H-isoindole-1,3-dione], in assay [1] (setting [5]), the maximal degradation (Dmax) was below 50% and the DC50 is below 10 nM. In assay [2] (setting [6]), this compound came in with a DC50 below 10 nM and a Dmax of 50 to 70%.

For the compound `CC1(Oc2ccc3[nH]nc(-c4ccnc(N5CCC(O[C@H]6CC[C@H](OC7CCN(c8ccc9c(c8)C(=O)N(C8CCC(=O)NC8=O)C9=O)CC7)CC6)CC5)c4)c3c2)CC1` (some centres unmarked) [Compound 100, 2-(2,6-dioxopiperidin-3-yl)-5-(4-{[(1r,4r)-4-[(1-{4-[5-(1-methylcyclopropoxy)-1H-indazol-3-yl]pyridin-2-yl}piperidin-4-yl)oxy]cyclohexyl]oxy}piperidin-1-yl)-2,3-dihydro-1H-isoindole-1,3-dione], in assay [1] (setting [5]), the Dmax is below 50% and the DC50 was 10 to 50 nM. For the same compound, in assay [2] (setting [6]), the half-maximal degradation concentration (DC50) was 10 to 50 nM and the Dmax fell in the range of 50 to 70%.

`CC1(Oc2ccc3[nH]nc(-c4cc(N5CCC(CN6CC(CN7CCN(c8ccc9c(c8)C(=O)N(C8CCC(=O)NC8=O)C9=O)CC7)C6)CC5)ncn4)c3c2)CC1` (centres unmarked) [Compound 125, 2-(2,6-dioxo-3-piperidyl)-5-[4-[[11-[[1-[6-[5-(1-methylcyclopropoxy)-1H-indazol-3-yl]pyrimidin-4-yl]-4-piperidyl]methyl]azetidin-3-yl]methyl]piperazin-1-yl]isoindoline-1,3-dione]: in assay [1] (setting [5]), the Dmax lay in the range of 50 to 70% and the DC50 was below 10 nM. In assay [2] (setting [6]), this compound came in with a DC50 below 10 nM and a Dmax of 50 to 70%.

`CC1(Oc2ccc3[nH]nc(-c4ccnc(N5CC6(CN(CC7CCN(CC8CCN(c9ccc%10c(c9)C(=O)N(C9CCC(=O)NC9=O)C%10=O)CC8)CC7)C6)C5)c4)c3c2)CC1` (centres unmarked) [Compound 161, 2-(2,6-dioxo-3-piperidyl)-5-[4-[[4-[[2-[4-[5-(1-methylcyclopropoxy)-1H-indazol-3-yl]-2-pyridyl]-2,6-diazaspiro[3.3]heptan-6-yl]methyl]-1-piperidyl]methyl]-1-piperidyl]isoindoline-1,3-dione]: in assay [1] (setting [3]), the maximal degradation (Dmax) was in the range of 50 to 70% and the DC50 fell in the range of 10 to 50 nM. In assay [2] (setting [4]), this compound returned a DC50 of 10 to 50 nM and a Dmax of 50 to 70%.

With `C[C@H]1CN(c2cc(-c3n[nH]c4ccc(OC5(C)CC5)cc34)ncn2)CCN1CC1CN(CC2CCN(c3ccc4c(c3)C(=O)N(C3CCC(=O)NC3=O)C4=O)CC2)C1` (stereo partly drawn) [Compound 122, 2-(2,6-dioxo-3-piperidyl)-5-[4-[[3-[[(2S)-2-methyl-4-[6-[5-(1-methylcyclopropoxy)-1H-indazol-3-yl]pyrimidin-4-yl]piperazin-1-yl]methyl]azetidin-1-yl]methyl]-1-piperidyl]isoindoline-1,3-dione], in assay [1] (setting [5]), the Dmax lay within 50 to 70% and the DC50 was below 10 nM. In assay [2] (setting [6]), this compound showed a DC50 below 10 nM and a Dmax of 50 to 70%.
